Where “and” joins values, the source holds several entries; their conditions need not be identical. Identical values can stand only once. Marks after values point to notes of the source that are not given here.
Columns and labels:
[1] = system: Bcap-37 human breast cancer; assay: Bcap-37 human breast cancer xenograft in nude mice, dosing from 24 h after transplantation (Example 3); assay type: in vivo
Excerpt: (§1) Both male and female mice were used. […] Test control. […] Preparation and Administration of Test Compounds. […] For human tumor xenograft model, all used materials, including animal food, animal cage, supporting materials and apparatus contacted by animals, were high-pressure sterilized. Nude mice were maintained in laminar flow shelves under SPF condition. After tumor transplantation, mouse weight and tumor size in each compound dosage group were dynamically monitored and plotted.

mouse Lewis lung cancer = assay: In vivo antitumor efficacy, mouse Lewis lung cancer model, Example 3 (ACEA100108); settings: 10 mg/kg/d iv x7 qd
Experimental: For human tumor xenograft models, cancer cells were passed twice in vivo before being transplanted into the nude mice for the study. Cultured human cancer cells in flask were first xenograft-transplanted in immunodeficient nude mice. After the cancer cells grew to a tumor of certain sizes in the nude mice, the tumor was removed form the nude mice and tumor tissues were dissected. The cell suspensions were prepared from the dissected tumor tissue and transplanted back to immunodeficient nude mice again (i.e. the second passage of cancer cells in human cancer xenograft-transplanted model). After the cancer cells grew to certain size, the tumor was removed from nude mice and the tumor tissues were dissected. The cell suspensions were prepared from dissected tissues and were used for the study of human cancer xenograft models described here.
Both male and female mice were used. However, for each experiment, animals of same sex were used. For the mouse transplanted tumor model, the numbers of animals tested were as follows: 10 for each dose group, 10 for positive control group and 20 for negative control group. For human tumor xenograft model, the numbers of animals tested were as follows: 6 for each dose group, 6 for positive control group and 12 for negative control group.
Test control. For negative control, each mouse was administered intravenously with the solvent only having the same volume and same concentration as those used in high dose ACEA100108 test, once a day, for 7 consecutive days. […] In a reference group, DBTS was administered intravenously at 50 mg/kg, once a day for 7 consecutive days.
Preparation and Administration of Test Compounds. […] Each time before use, this solution was diluted in normal saline to achieve desired ACEA100108 concentrations. Each mouse (about 20 g in weight) was administered intravenously with the compound solution of 0.5 mL at a controlled injection speed of 0.5 ml/0.5 min. 24 hrs after the tumor transplantation, intravenous injections of compound solutions into carrier mice were performed once a day, for consecutive 7 or 10 days.
Preparation of Tumor Cells for Transplantation and Determination of Compound Efficacy. To prepare the cancer cells for mouse Lewis lung cancer model, human breast cancer xenograft model and human colon cancer xenograft model, the fast growing tumors were first removed from the transplanted tumor mice. The tumor tissues were dissected and tumor cell suspensions were prepared in normal saline to have a concentration of 2-4×10^7 cells/ml. 0.2 ml of cell suspension was subcutaneously injected into the axillary region (right-side) of each mouse. […] Between two and four weeks after transplantation, mice were sacrificed and the transplanted tumors were removed from experimental mice.

[2] = system: microtubules in COS cells; assay: Microtubule network in cultured COS cells (anti-tubulin immunofluorescence, confocal microscopy); assay type: cell-based
[3] = system: ao10/17 human ovarian cancer; assay: ao10/17 human ovarian cancer xenograft in nude mice (Example 4); assay type: in vivo; settings: for Tumor volume (cm^3): 10 mg/kg iv x7 qd
Experimental: Only female mice were used in this study. […] The high, middle and low doses of ACEA100108 were 50, […] and 8 mg/kg/d, respectively.
Preparation and Administration of Test Compounds. […] The high, middle and low dose of compound ACEA100108 was 50, 20 and 8 mg/kg, respectively.
The tumor tissues were grounded in normal saline (1:6 for tumor volume to saline volume) and tumor cell suspensions were prepared in the normal saline.
For the human ovarian cancer xenograft model, all used materials, including animal food, animal cage, supporting materials and apparatus contacted by animals, were high-pressure sterilized. Nude mice were maintained in laminar flow shelves under SPF condition. After tumor transplantation, mouse weight and tumor size in each compound dosage group were dynamically monitored and plotted. The tumor size was determined by measuring the major axis (a) and minor axis (b) of the tumor, and tumor volume was calculated according to the equation (3) in Example 3.

HCT-8 human colon cancer = HCT-8 human colon cancer xenograft in nude mice (Example 3); assay type: in vivo; settings: 10 mg/kg/d iv x7 qd
Excerpt: as §1

[4] = system: P388 lymphocytic leukemia; assay: Murine P388 lymphocytic leukemia model (intraperitoneal transplantation), life span; assay type: in vivo, mouse; settings: 10 mg/kg/d iv x7 qd
[5] = 10 mg/kg iv x7 qd, 7 days after transplantation
[6] = 10 mg/kg/d iv x7 qd, vs solvent control

CC(=O)O[C@H]1C(=O)[C@@]2(C)[C@H]([C@H](OC(=O)c3ccccc3)[C@]3(O)C[C@H](OC(=O)[C@H](O)[C@@H](NC(=O)c4ccccc4)c4ccccc4)C(C)=C1C3(C)C)[C@]1(OC(C)=O)CO[C@@H]1C[C@@H]2O [Taxol, paclitaxel, reference compound]
Mice with palpable tumor / total mice [1, 5]: 4/6††
Tumor volume (cm^3) [1, 5]: 0.01 cm^3
Tumor volume (cm^3) ([1]; 10 mg/kg iv x7 qd, 14 d): 0.065 ± 0.02 cm^3
Tumor volume (cm^3) ([1]; 10 mg/kg iv x7 qd, 21 d): 0.249 ± 0.07 cm^3
Tumor volume (cm^3) ([1]; 10 mg/kg iv x7 qd, 24 d (end)): 0.685 cm^3 and 0.685 ± 0.14 cm^3
TV inhibition rate % T/C ([1]; 10 mg/kg/d iv x7 qd): 39.05%
Tumor weight ([1]; 10 mg/kg/d iv x7 qd): 0.88 ± 0.17 g
Body weight of mice ([1]; 10 mg/kg/d iv x7 qd, 0 day (beginning)): 18.1 g and 18.1 ± 1.1 g
Body weight of mice ([1]; 10 mg/kg/d iv x7 qd, 7 day): 19.7 ± 1 g
tumor inhibition rate % [1, 6]: 48.84%
Animal weight (g) beginning (mouse Lewis lung cancer): 20.4 g
Animal weight (g) end (mouse Lewis lung cancer): 23.8 g
Tumor weight (mouse Lewis lung cancer): 1.52 ± 0.15 g
Inhibition rate (%) (mouse Lewis lung cancer; vs solvent control): 43.91%
Microtubule network appearance ([2]; 4 hours exposure): Microtubules appear bundled in some locations
Microtubule network appearance ([2]; 24 hours exposure, increasing dosage): increased bundling and the short microtubules persist
Tumor volume (cm^3) ([3]; 7 D after transplantation): 0.01 cm^3
Tumor volume (cm^3) ([3]; 14 d): 0.033 ± 0.02 cm^3
Tumor volume (cm^3) ([3]; 21 d): 0.196 ± 0.03 cm^3
Tumor volume (cm^3) ([3]; 24 d): 0.349 ± 0.08 cm^3
Tumor weight ([3]; 10 mg/kg/d iv x7 qd): 0.77 ± 0.12 g
tumor inhibition rate % [3, 6]: 45.39%
TV inhibition rate % T/C (HCT-8 human colon cancer): 44.45%
Tumor weight (HCT-8 human colon cancer): 1.02 ± 0.11 g
Mice with palpable tumor / total mice (HCT-8 human colon cancer; 7 day after transplantation): 6/6††
Tumor volume (cm^3) (HCT-8 human colon cancer; 7 day after transplantation): 0.01 cm^3
Tumor volume (cm^3) (HCT-8 human colon cancer; 14 d): 0.116 ± 0.03 cm^3
Tumor volume (cm^3) (HCT-8 human colon cancer; 25 d (end)): 0.694 cm^3 and 0.694 ± 0.15 cm^3
tumor inhibition rate % (HCT-8 human colon cancer; vs solvent control): 33.33%
animal No. beginning/end (survivors) [4]: 10/0
Average life span X ± SD ([4]; observed within 30 days): 10.5 ± 1.18

Reference: US8334316B2, “Substituted organosulfur compounds and methods of using thereof” (ACEA Biosciences, Inc., priority 2004, dated 2012)
